Patent US20070208087A1, “Compounds, compositions and methods for the treatment of inflammatory diseases” (priority 2001, published 2007)
Values joined by “and” are separate entries in the source; they are usually repeats but may differ in a detail not shown here. Equal entries are not always repeated. Where two headings read alike, the source gives them in different places.

Experiments:
Assay type in all cases: cell-based
[1] = test system: Microglial cells; assay: Dose response inhibition of NO release from microglia, 0.75-200 μM (Example 8)
Procedure, shortened: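 Microglia plated at 1×10^5 cells/ml, stimulated with LPS/IFNγ and treated at 0.75, 1.56, 3.125, 6.25, 12.5, 25, 50, 100 and 200 μM. NO release measured after 48 hours by Griess reaction.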

[2] = test system: EOC 13.31 microglia cells; assay: Inhibition of NO release from microglia following 24 hours pretreatment (Example 10); conditions: for inhibition at 50 µM: Microglia
Procedure, shortened: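 Confluent EOC 13.31 cells pretreated 24 hours with 50 μM compound (from 10 mM DMSO stock), then stimulated with 10 μg/ml LPS plus 10 ng/ml IFNγ without media change. After a further 48 hours, NO release was measured by Griess Reaction.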

[3] = test system: Microglial cells; assay: Dose response inhibition of NO release from microglia, 0.5-500 μM (Example 9); conditions: for μM NO release / μM NO release (No LPS average subtracted): 3 replicates
Procedure, shortened: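 Cells seeded at 1×10^5 cells/ml and, after 48 h, stimulated with 10 ng/ml IFNγ plus 10 μg/ml LPS together with test compounds or L-NAME at 0.5–500 μM. NO release measured by Griess reaction after 48 h.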

[4] = dose 200 μM, 48 hours, single replicates
[5] = dose 0.5 μM, LPS/IFNγ, 48 hours
[6] = dose 100 μM, LPS/IFNγ, 48 hours
[7] = dose 250 μM, LPS/IFNγ, 48 hours
[8] = dose 500 μM, LPS/IFNγ, 48 hours

## O=C(NCc1ccc(O)c(O)c1)C(=Cc1ccc(O)c(O)c1)NC(=O)c1ccc(O)c(O)c1 [Compound 21, α-(3,4-dihydroxybenzamido)-3,4-dihydroxycinnamic acid 3,4-dihydroxybenzyl amide]
[1]; dose 200 μM, 48 hours
  μM NO release Avg: 6.094 µM
[1]; [4]
  % inhibition: 68.42% and 71.58%
  OD values (printed under head μM NO release): 0.087 and 0.093 and 0.092
  μM NO release: 5.625 µM and 6.41 µM
[1]; dose response 0.75-200 μM
  inhibition of NO release, in words: effective inhibitors of NO release
[2]; 50 uM pretreatment 24 hours, then LPS/IFNγ 48 hours, single replicates
  % inhibition: 82.29% and 84.17%
[2]; 50 uM pretreatment 24 hours, then LPS/IFNγ 48 hours, read-out: Avg % Inhibition
  inhibition at 50 µM: 83.9%
[2]; 50 uM pretreatment 24 hours, then LPS/IFNγ 48 hours, single replicates, read-out: % inhibition
  inhibition at 50 µM: 85.2%
[2]; 50 μM pretreatment, read-out: inhibition of NO release following pretreatment
  inhibition at 50 µM: > 75%
[3]; Microglia, 48 h, dose 0.5 μM, NO release, LPS/IFNγ, 48 hours, read-out: Avg % Inhibition
  inhibition at 0.5 µM: -0.76%
[3]; Microglia, 48 h, dose 1 μM, NO release, LPS/IFNγ, 48 hours, read-out: Avg % Inhibition
  inhibition at 1 µM: 1.01%
[3]; Microglia, 48 h, dose 5 μM, NO release, LPS/IFNγ
  inhibition at 5 µM: 0.76%
[3]; Microglia, 48 h, dose 10 μM, NO release, LPS/IFNγ
  inhibition at 10 µM: -1.27%
[3]; Microglia, 48 h, dose 25 μM, NO release, LPS/IFNγ
  inhibition at 25 µM: 4.82%
[3]; Microglia, 48 h, dose 50 μM, NO release, LPS/IFNγ
  inhibition at 50 µM: 13.2%
[3]; Microglia, 48 h, dose 100 μM, NO release, LPS/IFNγ, 48 hours, read-out: Avg % Inhibition
  inhibition at 100 µM: 35.2%
[3]; Microglia, 48 h, dose 100 μM, individual replicates, NO release, LPS/IFNγ, 48 hours, read-out: % inhibition
  inhibition at 100 µM: 29.4%
[3]; Microglia, 48 h, dose 250 μM, NO release, LPS/IFNγ, 48 hours, read-out: Avg % Inhibition
  inhibition at 250 µM: 83.5%
[3]; Microglia, 48 h, dose 250 μM, individual replicates, NO release, LPS/IFNγ, 48 hours, read-out: % inhibition
  inhibition at 250 µM: 81%
[3]; Microglia, 48 h, dose 500 μM, NO release, LPS/IFNγ, 48 hours, read-out: Avg % Inhibition
  inhibition at 500 µM: 80.3%
[3]; Microglia, 48 h, dose 500 μM, individual replicates, NO release, LPS/IFNγ, 48 hours, read-out: % inhibition
  inhibition at 500 µM: 78%
[3]; [5]
  μM NO release: 19.722 µM and 20.139 µM and 20.417 µM
  μM NO release (No LPS average subtracted): 18.02 µM and 18.44 µM and 18.72 µM
[3]; dose 0.5 μM, individual replicates, NO release, LPS/IFNγ, 48 hours
  % inhibition: 1.27% and −1.01% and −2.54%
[3]; dose 1 μM, LPS/IFNγ, 48 hours
  μM NO release: 20.694 µM and 19.444 µM and 19.167 µM
  μM NO release (No LPS average subtracted): 18.99 µM and 17.74 µM and 17.47 µM
[3]; dose 1 μM, individual replicates, NO release, LPS/IFNγ, 48 hours
  % inhibition: −4.06% and 2.79% and 4.31%
[3]; dose 5 μM, LPS/IFNγ, 48 hours
  μM NO release: 20.278 µM and 20.000 µM and 19.167 µM
  μM NO release (No LPS average subtracted): 18.58 µM and 18.30 µM and 17.47 µM
[3]; dose 5 μM, individual replicates, NO release, LPS/IFNγ, 48 hours
  % inhibition: −1.78% and −0.25% and 4.31%
[3]; dose 10 μM, LPS/IFNγ, 48 hours
  μM NO release: 20.556 μM (2×) and 19.444 μM
  μM NO release (No LPS average subtracted): 18.86 μM (2×) and 17.74 μM
[3]; dose 10 μM, individual replicates, NO release, LPS/IFNγ, 48 hours
  % inhibition: −3.30% (2×) and 2.79%
[3]; dose 25 μM, LPS/IFNγ, 48 hours
  μM NO release: 19.722 µM and 18.889 µM and 18.611 µM
  μM NO release (No LPS average subtracted): 18.02 µM and 17.19 µM and 16.91 µM
[3]; dose 25 μM, individual replicates, NO release, LPS/IFNγ, 48 hours
  % inhibition: 1.27% and 5.83% and 7.36%
[3]; dose 50 μM, LPS/IFNγ, 48 hours
  μM NO release: 18.472 µM and 16.806 µM and 17.361 µM
  μM NO release (No LPS average subtracted): 16.77 µM and 15.11 µM and 15.66 µM
[3]; dose 50 μM, individual replicates, NO release, LPS/IFNγ, 48 hours
  % inhibition: 8.12% and 17.25% and 14.20%
[3]; [6]
  μM NO release: 14.583 µM and 12.639 µM and 13.333 µM
  μM NO release (No LPS average subtracted): 12.88 µM and 10.94 µM and 11.63 µM
[3]; dose 100 μM, individual replicates, NO release, LPS/IFNγ, 48 hours
  % inhibition: 40.07% and 36.27%
[3]; [7]
  μM NO release: 5.163 µM and 3.940 µM and 5.027 µM
  μM NO release (No LPS average subtracted): 3.46 µM and 2.24 µM and 3.33 µM
[3]; dose 250 μM, individual replicates, NO release, LPS/IFNγ, 48 hours
  % inhibition: 87.73% and 81.77%
[3]; [8]
  μM NO release: 5.707 µM and 4.348 µM and 5.842 µM
  μM NO release (No LPS average subtracted): 4.01 µM and 2.65 µM and 4.14 µM
[3]; dose 500 μM, individual replicates, NO release, LPS/IFNγ, 48 hours
  % inhibition: 85.49% and 77.31%
[3]; dose response 0.5-500 μM
  inhibition of NO release, in words: most effective at the 250 μM dose
